Patent US5464821A, “Small peptidic compounds useful for the treatment of glaucoma” (Carlbiotech, Ltd., priority 1991, dated 1995)
Residues, ends and D or L forms follow the SMILES beside them. *: point of attachment. OBn = c1ccc(CO*)cc1; Acm = CC(=O)NC*

Tests used:
[1] = tested on: water load induced hypertension in the rabbit's eye; assay: water load model, intraocular pressure in the rabbit's eye; format: in vivo
Protocol: The findings of IOP lowering effects in the stress induced rabbit model have been confirmed and further studied by using another elevated eye pressure rabbit model. In this model, the widely applied water load model, elevation of the intraocular pressure is achieved by injecting a large volume of sterile water intraperitoneally into the rabbits. Following onset of eye drop treatment in one eye while the other eye is treated with saline placebo, the intraocular pressure of both eyes is then measured at various intervals and the .pressure difference between the eyes is taken as an expresion of the pharmaceutical effect.
The studies utilized a "water load" animal model.
Thirty minutes before drug solution instillation, rabbits were injected intraperitonally with 60 ml/kg of sterile distilled water for injection (30° C.) spiked with an antibiotic mixture (Sigma P9032).
At time zero, 50 μl of a drug solution was instilled to one eye and an equal volume of a saline solution was instilled to the other eye. The IOP in each eye was monitored at the time points indicated. The change in IOP at each time point is computed by subtracting the IOP in the dosed eye from that in the undosed-eye.
From these plots were assessed the maximal IOP effect, the time to reach this and the time for returning to a zero or insignificant level of IOP lowering effect. These figures were taken as a measure of potency and duration of effect.
(§1) Peptides were tested for the intraocular pressure lowering or antagonizing effects in the water load model described above or the stress induced antagonizing model respectively, in groups of four to ten rabbits, as described below. The tests were performed on homogeneous groups of randomly sexed rabbits, weight 2.5-3.0 kg, but of different breeds in various laboratories several places in the world. Thus, in some cases intergroup variations were found in the absolute starting pressure of the rabbit's eyes.
(§2) In the case of the water load model structure, each rabbit served as its own reference control for the duration of the experiment, and in the case of the stress induced antagonistic model, each group of rabbits served as reference control, at the beginning and end of 10 stress units. Usually, the peptides were dissolved in plain isotonic saline, but in one case in the waterload model, a TRIS-buffer at physiological pH was included.
50 μl of a 1% solution of the peptides in 0.9% aqueous saline were applied in one eye and 50 μl of 0.9% aqueous saline in the other eye 30 minutes after the intraperitonal water loading and IOP were measured in both eyes for 2 hours and the difference calculated.
50 μl of 1% solution of the peptides in 0.9% isotonic saline containing TRIS-buffer pH 7.4 was applied in one eye and 50 μl of 0.9% isotonic saline containing TRIS-buffer. pH 7.4 in the other eye 30 minutes after the interperitonal water loading and intraocular pressure was measured in both eyes for 2 hours and the difference calculated.

[2] = tested on: stress induced intraocular pressure in the rabbit's eye; assay: stress induced antagonizing model, intraocular pressure in the rabbit's eye; format: in vivo; design: key to Antagonizing Effect: Active: the pressure increase following 10 stress units for the treated group on average was found to be smaller than 2 mm Hg and to be significantly less compared to untreated controls; settings: for Antagonizing Effect: 1% solution in 0.9% aqueous NaCl, 60 μl topically 3 times daily over 5 days, following 10 stress units
Protocol: The main feature of this clinical model is a stress induced elevation of the IOP in the rabbit eye above the initial and normal value. The stress is exerted, i.e. applied, in the form of measuring the pressure (at 12 hour intervals) with the help of a SHIOTZ-Tonometer, which is loaded with 7.5 grams. The pressure first begins to rise after 5 measurements, i.e. after 21/2 days, and reaches a maximum after 10 measurements, i.e. after 5 days.
Known antiglaucoma drugs lower the intraocular pressure when they are applied after the intraocular pressure (IOP) has clearly been established,in spite of the fact that the trauma, i.e. the measuring of the pressure, continued during the treatment.
Antagonizing of the Intraocular Pressure in the stressed Rabbit's Eyes Model
The compound was a freeze-dried powder, and was applied to the rabbit eye as a powder, or as drops, dissolved in 0.9% NaCl aqueous solution. Negative control was 0.9% NaCl solution in water.
as §1, §2
The peptides were applied topically as a 1% solution in 0.9% aqueous NaCl in aliquots of 60 μl 3 times daily over a period of 5 days.

[3] = from PCT/DK90/00322; cited from earlier work
[4] = tested on: stress induced intraocular pressure in the rabbit's eye; settings: earlier work in the laboratory of one of the inventors; cited from earlier work
[5] = single dose 50 μl of 1% solution in 0.9% aqueous saline in one eye, saline in the other, IOP measured for 2 hours

## CC(=O)NCC(=O)NCC(=O)N[C@H](C(N)=O)C(C)C [Ac-Gly-Gly-Val-NH2] (Ac-Gly-Gly-Val-NH2)
[1]; [5]
  Pressure Lowering Effect: Active
[2]
  Antagonizing Effect: Active

## CC(C)[C@H](NC(=O)CNC(=O)CNC(=O)[C@@H](N)CC(N)=O)C(N)=O [H-Asn-Gly-Gly-Val-NH2] (H-NGGV-NH2)
[2]
  Antagonizing Effect: Active

## CC(C)C[C@H](NC(=O)[C@@H](N)CC(N)=O)C(=O)NCC(=O)N[C@@H](Cc1ccc(O)cc1)C(N)=O [H-Asn-Leu-Gly-Tyr-NH2] (H-NLGY-NH2)
[2]
  Antagonizing Effect: Active

## CC(C)C[C@H](NC(=O)[C@@H](N)CC(N)=O)C(=O)NCC(=O)N[C@H](C(N)=O)C(C)C [H-Asn-Leu-Gly-Val-NH2] (H-NLGV-NH2)
[2]
  Antagonizing Effect: Active

## CCOC(=O)[C@@H](NC(=O)CNC(=O)CN)C(C)C [H-Gly-Gly-Val-OEt] (H-Gly-Gly-Val-OEt)
[2]
  Antagonizing Effect: Active

## CC(C)[C@H](NC(=O)CN)C(=O)OCc1ccccc1 [H-Gly-Val-OBzl, Glycyl-L-Valine-Benzylester] (H-Gly-Val-OBn)
[1]; [5]
  Pressure Lowering Effect: Active
[2]
  Antagonizing Effect: Active
[2]; stress induced model
  antagonizing effect / efficacy in the stress induced rabbit model (in words): good efficacy

## CC(C)[C@H](NC(=O)CN)C(=O)N[C@@H](Cc1ccc(O)cc1)C(N)=O [H-Gly-Val-Tyr-NH2] (H-Gly-Val-Tyr-NH2)
[1]; [5]
  Pressure Lowering Effect: Active
[2]
  Antagonizing Effect: Active

## CC(C)[C@H](NC(=O)CCN)C(=O)OCc1ccccc1 [H-β-Ala-Val-OBzl, β-alanyl L-valine Benzylester]
[1]; single dose 50 μl of 1% solution in 0.9% isotonic saline containing TRIS-buffer pH 7.4, IOP measured for 2 hours
  Pressure Lowering Effect: Active

## CC(=O)NCSC[C@H](NC(=O)[C@@H](NC(=O)CNC(=O)[C@H](CC(C)C)NC(=O)[C@@H](N)CC(N)=O)C(C)C)C(N)=O [HAsnLeuGlyValCys(Acm)NH2, H-Asn-Leu-Gly-Val-Cys(Acm)-NH2] (H-NLGVC(Acm)-NH2)
[3]
  penetration of the sclera of the eye: penetrate the sclera of the eye

## CC[C@@H]1C(=O)OC[C@@H]1Cc1cncn1C [pilocarpine, reference compound]
[1]; 2.6% solution, positive reference control
  pressure lowering effect in the water load model (in words): gave a similar response to some of the preferred compounds

## CC(C)(C)NC[C@H](O)COc1nsnc1N1CCOCC1 [timolol]
[4]
  pressure lowering effect of known drugs in the stress model: pressure lowering effect
